Experimental data: US8980241B2, “Polymerized cyclic nitroxide radical compound and use thereof” (University of Tsukuba, priority 2008, dated 2015)

Assays:
[1] = Test 3: reduction-resistance against ascorbic acid (ESR); format: physicochemical; conditions: 3.6 mM AsA, PBS buffer pH 7.4
Description: AsA, also referred to as vitamin C, is present in general at high concentrations in blood.

[2] = Test 2: reduction-resistance against glutathione (ESR); format: physicochemical; conditions: 10 mM glutathione, pH7.2, one hour after colocalization with GSH
Procedure: It is known that, in general, while the interior of a cell is a reductive environment with high concentrations (0.5 mM to 10 mM) of glutathione present, on the order of only one over 100 to 1000 of that in the cell is present in blood.

[3] = Test 4: in-blood retention after vein injection (ESR of blood plasma); conditions: in vivo, mouse, injected in the vein
Procedure: Each of N-TEMPO-RNP and O-TEMPO-RNP prepared as described above was independently injected in the vein of a different mouse, and after a given time period, laparotomy was performed to carry out blood collection from the heart. After blood collection, centrifugal separation was performed at 6,200 rpm (2000×g) for 10 minutes to obtain blood plasma. When the ESR spectrum of the obtained blood plasma was measured, an ESR signal of each RNP was observed from within the blood. In addition, when the disposition thereof was examined, the half-life was approximately 20 minutes for the former (FIG. 9) and approximately one hour for the latter (FIG. 10).

[4] = tested on: Cerebral ischemia model rat; assay: Test 5 (1): treatment of cerebral ischemia model rat; conditions: in vivo
[5] = tested on: cerebral ischemia model rats

| Molecule | half-life (ESR signal) [1] [s] | decrease in the intensity of the ESR signal [2] [%] | half-life [3] [s] | cell death-protection effect in TTC-stained brain [4] | cell death in TTC-stained brain ([4]; iv) | average blood pressure at the time of agent administration ([5]; cerebral ischemia model rats, N=20) | neurological symptom score ([5]; score 0-3, N=20) |
| --- | --- | --- | --- | --- | --- | --- | --- |
| 2,2,6,6-tetramethylpiperidino oxy radical [TEMPO] | ≤ 20 | 50 | – | – | – | – | – |
| CC1(C)CC(O)CC(C)(C)N1[O] [Tempol, 4-hydroxy-2,2,6,6-tetramethylpiperidine-1-oxyl] | – | – | < 60 | more cell death-protection effect at a given level or greater was obtained than with intravenous administration | more effect than N-TEMPO-RNP was not observed | decreased significantly | no significant differences |
